This note sets out measurements from patent US20220168322A1, “NOVEL STAT3 INHIBITORS IDENTIFIED BY STRUCTURE-BASED VIRTUAL SCREENING INCORPORATING SH2 DOMAIN FLEXIBILITY” (Board of Regents, The University of Texas System, priority 2018, published 2022).

Assay [1] deals with T1, STAT3 (aa 127-722) (Homo sapiens, UniProt P40763).
T1 construct: STAT3 (aa 127-722) at a concentration of 200 nM
Briefly: SPR assay of STAT3 binding to immobilized EGFR pY1068 phosphododecapeptide. The settings on record: for % of max binding at 10 μm: pEGFRp-STAT3 binding (SPR) at pH 8, compound 10 μm; for % of max binding at 100 μm: pEGFRp-STAT3 binding (SPR) at pH 8, compound 100 μm. As for the experimental part: Surface plasmon resonance (SPR) assay of STAT3 binding pY-peptide. STAT3 (aa 127-722) at a concentration of 200 nM in 20 mM Tris buffer (pH 8) was pre-incubated without or with compounds prior to injection onto an SA chip immobilized with phosphorylated and control non-phosphorylated biotinylated EGFR derived dodecapeptides based on sequence surrounding Y1068 (Shao et al., 2004), on a Biacore 3000 biosensor (Biacore inc., Piscataway N.J.) and analyzed as described (Bharadwaj et al., 2016).
Surface Plasmon Resonance (SPR) was performed on the 24 compounds to determine their ability to block binding of purified STAT3 to an immobilized phosphododecapeptide based on EGFR Y1068 (EGFR pY-peptide), as described (Xu et al., 2009).
In general terms: In SPR one partner is held on a chip, and binding of the other changes the refractive index at the surface.

For assay [2], the system named is G-CSF-stimulated pSTAT3. As to the kind of experiment: Inhibition of G-CSF-stimulated pSTAT3 in Kasumi-1 cells (Luminex, pSTAT3/GAPDH). Format: cell-based. The settings on record: Kasumi1 cells, single concentration of 10 μM, G-CSF 100 ng/ml; pSTAT3/GAPDH relative to DMSO treated cells. As for the experimental part: […] Total protein was assayed for pSTAT3 and GAPDH levels by Luminex. GAPDH-normalized pSTAT3 values were divided by the same for untreated cells and expressed as percentage. These values were plotted as a function of Log [M] compound, and IC50 calculated using GraphPad. Data from representative experiments from at least two repeats is shown.
Luminex bead-based assay. Luminex bead-based assays were used to determine levels of pSTAT3, pSTAT1, pSTAT5, and GAPDH, as described (Bharadwaj et al., 2015). […]

Molecules are shown by their SMILES.

T1 sequence (P40763 127-722 isoform P40763-3 limits assumed, species assumed): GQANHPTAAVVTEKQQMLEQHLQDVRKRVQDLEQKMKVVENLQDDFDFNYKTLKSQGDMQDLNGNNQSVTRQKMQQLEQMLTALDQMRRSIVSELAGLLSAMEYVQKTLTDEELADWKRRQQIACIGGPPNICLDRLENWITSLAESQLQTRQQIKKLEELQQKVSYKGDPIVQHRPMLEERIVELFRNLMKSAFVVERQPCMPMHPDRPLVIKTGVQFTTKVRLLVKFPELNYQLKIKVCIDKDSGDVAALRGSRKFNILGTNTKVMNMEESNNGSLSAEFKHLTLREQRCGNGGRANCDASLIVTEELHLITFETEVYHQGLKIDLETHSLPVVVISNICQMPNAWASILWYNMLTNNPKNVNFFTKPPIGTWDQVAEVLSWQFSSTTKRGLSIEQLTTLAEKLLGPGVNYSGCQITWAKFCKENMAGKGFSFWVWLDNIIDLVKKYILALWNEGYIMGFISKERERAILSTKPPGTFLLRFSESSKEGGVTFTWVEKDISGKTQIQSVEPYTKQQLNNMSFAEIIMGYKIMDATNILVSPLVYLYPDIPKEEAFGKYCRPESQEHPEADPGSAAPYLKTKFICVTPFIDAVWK

On to `CCCCOc1ccc(/C=C2\SC(=O)NC2=O)cc1OCC` [SPEC-20], for which, in assay [1], the “% of max binding at 10 μm” value is reported as 76.7% and the “% of max binding at 100 μm” value is given as 46.1%. Besides, in assay [2], the “% of Control Stimulated pSTAT3” value came to 27%.
For `CC(C)c1ccc(NC(=O)C2C3C=CC(CC3)C2C(=O)O)cc1` (stereo not shown) [SPEC-65] the same measures were 57.5%, 43.5% and 35%.
The like results for `CS(=O)(=O)c1ccc2nc(NC(=O)c3cccc(Cn4cc(Cl)cn4)c3)sc2c1` [SPEC-66] were, in that order, 57.2%, 15.9% and 48%.
On to `COc1ccc(CCNC(=O)c2cccc(C(=O)NCCc3ccc(OC)c(OC)c3)c2)cc1OC` [SPEC-67], for which, in assay [1], the “% of max binding at 10 μm” value was found to be 64.1% and the “% of max binding at 100 μm” value was 51.3%.
Take `O=C(Nc1ccc(Oc2ccccc2Cl)cc1)C1C2CC3C(OC(=O)C31)C2Br` (stereo not shown) [SPEC-73]: in assay [1], the “% of max binding at 10 μm” value is given as 58.5% and the “% of max binding at 100 μm” value is 31.5%. Further, in assay [2], the “% of Control Stimulated pSTAT3” value was 38%.
For `O=C(O)c1ccc(-c2ccc(/C=C3/NC(=O)N(Cc4ccccc4F)C3=O)o2)cc1Cl` [SPEC-82] the same measures were 109.3%, 28.4% and 27%.
For `CCOc1ccc(N(C(C)C(=O)Nc2cccc(Cl)c2C)S(C)(=O)=O)cc1` (stereo not shown) [SPEC-86] the same measures were 120.1%, 59.1% and 5%.
The like results for `CCn1c(CNc2ccc(Cl)cc2)nnc1SC(C)C(=O)Nc1ccc(C(C)=O)cc1` (stereo not shown) [SPEC-90] were, in that order, 132.2%, 59.5% and 4%.
`COC(=O)c1ccc(N2C(=O)CC(SC(=NCCc3ccc(S(N)(=O)=O)cc3)Nc3ccccc3)C2=O)cc1` (stereo not shown) [SPEC-100]: in assay [1], the “% of max binding at 10 μm” value is 70.8% and the “% of max binding at 100 μm” value worked out at 15.4%. In addition, the “% of Control Stimulated pSTAT3” value in assay [2] was found to be 42%.
For `CC(=O)c1ccc(NC(=O)C2C3CC/C=C\CCC32)cc1` (stereo not shown) [SPEC-102] the same measures were 73.7%, 21.4% and 38%.
In the case of `CC1(C)CC(=O)c2sc(NC(=O)CSc3nnc(SCC(=O)Nc4nc5c(s4)C(=O)CC(C)(C)C5)s3)nc2C1` [SPEC-103], in assay [1], the “% of max binding at 10 μm” value is listed as 76.0% and the “% of max binding at 100 μm” value stood at 10.4%. For the same compound, the “% of Control Stimulated pSTAT3” value in assay [2] was 46%.
In the case of `CN1CCS/C1=C/C=C1\SC(=S)N(CC(=O)O)C1=O` [SPEC-107], the “% of Control Stimulated pSTAT3” value in assay [2] was found to be 107%.
With `COC(=O)CCC(=O)Nc1ccc(Cc2ccc(NC(=O)CCC(=O)OC)cc2)cc1` [SPEC-108], the “% of Control Stimulated pSTAT3” value in assay [2] turned out to be 98%.
Turning to `NC(=O)CCN1CCN(CCOC2Cc3cc(Cl)ccc3Sc3ccccc32)CC1` (stereo not shown) [SPEC-109], in assay [1], the “% of max binding at 10 μm” value is recorded as 97.1% and the “% of max binding at 100 μm” value is recorded as 82.3%. In addition, the “% of Control Stimulated pSTAT3” value in assay [2] is 1%.
